Results reported in patent publication US4684625A, “Method for enhancing the anti-infective activity of muramyldipeptide derivatives” (Syntex (U.S.A.) Inc., priority 1985, dated 1987).
Several values for one entry are separate records, joined by “and”; a condition that tells them apart may be missing. Identical values can stand only once.

Columns and labels:
[1] = tested on: Candida albicans; assay: Survival of mice given a single abu-MDP treatment 72 hr prior to challenge with Candida albicans (Example 2, Table II); type: in vivo; settings: one treatment at day 3 before infection
Procedure: (§1) Mice were injected intravenously with liposomes (4 micromoles phospholipid)and also with free abu-MDP (2-4 mg/kg). The abu-MDP was injected at the same time as the liposome injection. Injections were made at 96 and 48 hr prior to challenge with Candida albicans (5×10^6 cells injected intravenously). Control mice were treated with either liposomes only, or abu-MDP only (4 or 60 mg/kg), or abu-MDP (2-4 mg/kg) encapsulated in liposomes, and similarly challenged with Candida albicans. Each treatment group contained 20 mice. All mice were monitored daily for number of survivors. Statistical analysis of survival time was computed using Mann Whitney U probability analysis, and the numbers of survivors were statistically compared using Fisher Exact probability analysis.
A second experiment was performed by the method described in Example 1, except that the mice were given a single pre-infection treatment at 72 hr prior to challenge, instead of treatments at 96 and 48 hr prior to challenge as in Example 1.

[2] = tested on: Candida albicans; assay: Survival of mice treated with abu-MDP at 96 and 48 hr prior to challenge with Candida albicans (Example 1, Table I); type: in vivo; settings: for Survival No. (%) / Survival Time: no MLV, days 4 and 2 before infection; for Survival No. (%): third set of rows (saline control 0%); for Survival Time: third set of rows (saline control 3.6 days)
Procedure: Multilamellar vesicles (MLVs) were formed by drying down egg phosphatidylcholine and brain phosphatidylserine (7:3 molar ratio) on the inside of a flask. Phosphate-buffered saline lacking divalent cations (PBS) was added (1 ml per 20 micromoles phospholipid), and the flask shaken, either by hand or with a mechanical shaker, until the lipid film was dispersed. When N-acetylmuramyl-L-α-aminobutyryl-D-isoglutamine (abu-MDP) was to be encapsulated, it was included in the aqueous solution before addition to the lipid film. The vesicles formed as the result of shaking the aqueous solution which contained MDP derivative were washed to remove unencapsulated MDP derivative, pelleted by centrifugation at 30,000×g for 20-30 min, and then resuspended in PBS. MLV preparations made without MDP derivative were either pelleted and resuspended as described, or were used without further treatment.
as §1
P values, calculated for survival time and number of survivors at the time when controls (treated only with MLV or with saline) first reached 100% dead, were all less than 0.03. By comparison, the treatments with the same concentration of abu-MDP alone were ineffective (P≥0.05).

[3] = Radioactivity of 3H-desMDP in liposome fraction and aqueous supernatant after mixing with pre-formed MLVs (Example 3, Table III); type: physicochemical
Procedure: MLVs were prepared as described above, hydrating the dried lipid film with PBS. These pre-formed liposomes were then mixed with unencapsulated MDP compound spiked with tritiated N-acetyldesmethylmuramyl-L-alanyl-D-isoglutamine (^3 H-desMDP). The liposome/MDP derivative mixture was washed and pelleted, and the final liposome pellet resuspended in PBS. The radioactivity in the liposome fraction was determined, as well as the radioactivity in the aqueous supernatant from the washing and pelleting steps. […] Thus, MDP compounds are not incorporated into or attached to liposomes in the practice of the invention.

Substance	Survival No. (%) ([1]; abu-MDP 4 mg/kg)	Survival Time ([1]; abu-MDP 4 mg/kg) [days]	Survival No. (%) ([1]; free abu-MDP 60 mg/kg)	Survival Time ([1]; free abu-MDP 60 mg/kg) [days]	protective activity against Candida albicans ([2]; abu-MDP alone at the same concentration as used with MLV (P≥0.05))	Survival No. (%) ([2]; free abu-MDP 4 mg/kg)	Survival Time ([2]; free abu-MDP 4 mg/kg) [days]	Survival No. (%) ([2]; free abu-MDP 60 mg/kg)	Survival Time ([2]; free abu-MDP 60 mg/kg) [days]	protective activity against Candida albicans ([2]; free abu-MDP alone raised to 60 mg/kg)	cpm/0.1 ml ([3]; aqueous fraction (supernatant from washing and pelleting))	% of Total ([3]; aqueous fraction (supernatant)) [%]	% of Total ([3]; liposome fraction) [%]	cpm/0.1 ml ([3]; liposome fraction (final pellet resuspended in PBS))
N-acetylmuramyl-L-α-aminobutyryl-D-isoglutamine [abu-MDP]	0	5.2	32	6.4	ineffective	0	4.4	45	6.9	protective activity obtained equivalent to that seen using the lower dose of abu-MDP (2-4 mg/kg) plus MLV	–	–	–	–
tritiated N-acetyldesmethylmuramyl-L-alanyl-D-isoglutamine [^3 H-desMDP]	–	–	–	–	–	–	–	–	–	–	557,610 cpm/0.1 ml and 562,800 cpm/0.1 ml	~100	0.2	1,462 cpm/0.1 ml and 1,304 cpm/0.1 ml
